For 8 compounds, GI50 and TGI results are on record in PubChem BioAssay (NCI).

Where “and” joins values, the source holds several entries; their conditions need not be identical. Equal values may be shown once.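 Interpolation was linear, between the two tested concentrations surrounding the appropriate level; five concentrations were tested over 48 hours in 96-well plates. Abbreviation: GI50, concentration required for 50% inhibition of growth. TGI marks complete inhibition of growth.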

Test systems include K-562 leukemia; UACC-62 melanoma; EKVX NSCLC; BT-549 breast; OVCAR-4 ovarian; TK-10 renal; 786-0 renal; A498 renal; NCI/ADR-RES ovarian; DU-145 prostate.
What all share (assay): NCI-60 cell line screen, 48 h

`CCOC1Oc2ccccc2-c2oc(=O)c(Sc3ccc(C)cc3)cc21` (stereo not given): the GI50 in the assay on K-562 leukemia was 15.4 µM; in the assay on UACC-62 melanoma, 17.9 µM; in the assay on EKVX NSCLC it was 42.8 µM; in the assay on BT-549 breast, 29.5 µM; with OVCAR-4 ovarian, 25.1 µM; in the assay on TK-10 renal, 30.8 µM. Besides, the GI50 was 36.3 µM in the assay on 786-0 renal, 34.4 µM in the assay on A498 renal, 35 µM with NCI/ADR-RES ovarian and 31.8 µM with DU-145 prostate. For the same compound, the TGI with K-562 leukemia, in the assay with UACC-62 melanoma, in the assay with EKVX NSCLC, in the assay with BT-549 breast, in the assay on OVCAR-4 ovarian and in the assay with TK-10 renal was greater than 100 µM in each case. Besides, the TGI in the assay on 786-0 renal, in the assay on A498 renal, with NCI/ADR-RES ovarian and in the assay with DU-145 prostate was greater than 100 µM throughout.

Regarding `Cc1nc(Nc2n[nH]c3c2CN(C(=O)N[C@H](CN(C)C)c2ccccc2)C3(C)C)c2sccc2n1`, the GI50 in the assay on K-562 leukemia was 0.0242 µM and 0.199 µM; in the assay on UACC-62 melanoma it was 0.00487 µM and < 0.01 µM; with EKVX NSCLC it was 0.0907 µM and 0.14 µM; in the assay on BT-549 breast, 0.393 µM and 0.189 µM; in the assay on OVCAR-4 ovarian it was 0.615 µM and 1.39 µM; in the assay with TK-10 renal, 0.0982 µM and 0.491 µM. In addition, the GI50 was 0.281 µM and 0.82 µM with 786-0 renal; > 3.65 µM and 17.5 µM with NCI/ADR-RES ovarian; 0.156 µM and 0.317 µM in the assay on DU-145 prostate. Besides, the TGI in the assay with K-562 leukemia is greater than 100 µM; in the assay on UACC-62 melanoma, 0.154 µM; in the assay with EKVX NSCLC, > 8.27 µM and 23.6 µM; in the assay on BT-549 breast it was 3.63 µM and 3.12 µM; in the assay on OVCAR-4 ovarian, > 6.95 µM and 8.37 µM; in the assay with TK-10 renal, 3.92 µM and 6.08 µM. In addition, the TGI is 4.75 µM and 4.45 µM with 786-0 renal; 1.85 µM and 3.25 µM in the assay with A498 renal; greater than 100 µM with NCI/ADR-RES ovarian; > 10 µM and 15.9 µM with DU-145 prostate.

`COc1ccccc1-c1cc(=O)c2ccc(C)nc2[nH]1`: the TGI in the assay with K-562 leukemia, in the assay on UACC-62 melanoma, in the assay on EKVX NSCLC, in the assay with BT-549 breast, in the assay on OVCAR-4 ovarian and in the assay with TK-10 renal was greater than 100 µM throughout. The TGI in the assay with 786-0 renal, in the assay with A498 renal, with NCI/ADR-RES ovarian and with DU-145 prostate was greater than 100 µM throughout. For the same compound, the GI50 in the assay on 786-0 renal was greater than 100 µM.

On to `O=C(/C=C/c1ccccc1)CC(c1ccccc1)N1CCOCC1` (stereo not given), for which the GI50 is 3.4 µM with K-562 leukemia; 9.07 µM with UACC-62 melanoma; 9.52 µM in the assay with EKVX NSCLC; 1.86 µM in the assay with BT-549 breast; 9.68 µM with OVCAR-4 ovarian; 8.63 µM in the assay on TK-10 renal. The GI50 was 1.95 µM in the assay on 786-0 renal, 12.9 µM in the assay with A498 renal, 3.37 µM in the assay with NCI/ADR-RES ovarian and 3.49 µM in the assay on DU-145 prostate. Moreover, the TGI in the assay with K-562 leukemia came to 21.8 µM; in the assay on UACC-62 melanoma, 21.8 µM; with EKVX NSCLC it was 22.3 µM; with BT-549 breast, 3.62 µM; in the assay on OVCAR-4 ovarian, 23.3 µM; in the assay on TK-10 renal it was 24.5 µM. In addition, the TGI with 786-0 renal came out at 3.61 µM; with A498 renal, 26.2 µM; in the assay with NCI/ADR-RES ovarian it was 16.3 µM; with DU-145 prostate, 10.9 µM.

`COc1ccc(-c2nnc(N3CCN(C(=O)CN4CCN(c5ccc(OC)cc5)CC4)CC3)nc2-c2ccc(OC)cc2)cc1`: the GI50 with K-562 leukemia is 2.14 µM; in the assay with UACC-62 melanoma, 12.1 µM; in the assay with EKVX NSCLC it was 7.86 µM; in the assay with BT-549 breast, 3.53 µM; with OVCAR-4 ovarian, 3.47 µM; in the assay on TK-10 renal it was 19 µM. For the same compound, the GI50 was 15.3 µM in the assay on 786-0 renal, 25.8 µM in the assay with A498 renal, 9.89 µM in the assay on NCI/ADR-RES ovarian and 12.2 µM in the assay with DU-145 prostate. The TGI in the assay on K-562 leukemia was 4.44 µM; in the assay with UACC-62 melanoma, 53.1 µM; with EKVX NSCLC it was greater than 65.9 µM; in the assay with BT-549 breast it was 24 µM; in the assay with OVCAR-4 ovarian it was 12.5 µM; in the assay on TK-10 renal it was 62.5 µM. The TGI is 40.6 µM in the assay on 786-0 renal, 50.4 µM in the assay on A498 renal, 31.9 µM with NCI/ADR-RES ovarian and 26.5 µM in the assay on DU-145 prostate.

As to `C=CCSc1nc2ccccc2c(=O)n1Cc1ccco1`, the TGI with K-562 leukemia, with UACC-62 melanoma, with EKVX NSCLC, in the assay with BT-549 breast, in the assay with OVCAR-4 ovarian and with TK-10 renal was greater than 100 µM each time. In addition, the TGI with 786-0 renal, in the assay with A498 renal, in the assay with NCI/ADR-RES ovarian and in the assay on DU-145 prostate was greater than 100 µM throughout.

With `OB1OCc2cc(/C=C/c3cccc(C(F)(F)F)c3)ccc21`, the GI50 in the assay on K-562 leukemia was 0.93 µM; in the assay on UACC-62 melanoma it was 0.551 µM; with EKVX NSCLC, 3.65 µM; in the assay on BT-549 breast it was 2.26 µM; with OVCAR-4 ovarian, 1.86 µM; with TK-10 renal, 2.46 µM. Besides, the GI50 in the assay on 786-0 renal was 0.365 µM; in the assay with A498 renal, 1.13 µM; in the assay with NCI/ADR-RES ovarian it was 0.544 µM; in the assay on DU-145 prostate, 0.554 µM. In addition, the TGI in the assay on K-562 leukemia is 24.2 µM; with UACC-62 melanoma, 63.4 µM; in the assay on EKVX NSCLC it was greater than 100 µM; with BT-549 breast it was greater than 100 µM; in the assay on OVCAR-4 ovarian, 17.3 µM; with TK-10 renal, 34.1 µM. Further, the TGI with 786-0 renal was 10.1 µM; in the assay with A498 renal, 9.22 µM; with NCI/ADR-RES ovarian it was 23.9 µM; in the assay on DU-145 prostate, 15.3 µM.

Regarding `Cc1cc(Nc2nc(SCc3ccc(C(=O)Nc4ccc(F)cc4N)cc3)nn3cccc23)n[nH]1`, the GI50 in the assay with K-562 leukemia is 0.0487 µM; in the assay with UACC-62 melanoma, 0.347 µM; with EKVX NSCLC, 0.919 µM; in the assay on BT-549 breast, 0.296 µM; in the assay on OVCAR-4 ovarian, 1.66 µM; with TK-10 renal, 1.21 µM. Further, the GI50 in the assay with 786-0 renal was 0.466 µM; in the assay on A498 renal it was 0.623 µM; in the assay with NCI/ADR-RES ovarian, 1.98 µM; with DU-145 prostate, 0.461 µM. Besides, the TGI in the assay on K-562 leukemia was greater than 100 µM; in the assay with UACC-62 melanoma it was 21.6 µM; with EKVX NSCLC, 55.9 µM; in the assay on BT-549 breast it was 7 µM; in the assay on OVCAR-4 ovarian, 77.7 µM; in the assay with TK-10 renal, 7.33 µM. Also, the TGI in the assay with 786-0 renal is 22 µM; in the assay with A498 renal, 5.61 µM; with NCI/ADR-RES ovarian it was greater than 100 µM; with DU-145 prostate it was greater than 100 µM.
